Values of other authors in patent US20230112418A1, “COMPOUND AND RADIOACTIVE LABELING COMPOUND” (NIHON MEDI-PHYSICS CO., LTD., priority 2020, published 2023).

Settings: compared with kidney value one hour after the injection; EJNMMI Res 2012, J Nucl Med 2017; cited from earlier work

O=C([O-])CN(CCN(CC(=O)[O-])Cc1cc(CCC(=O)NCCCCCC(=O)NCCCC[C@H](NC(=O)N[C@@H](CCC(=O)O)C(=O)O)C(=O)O)ccc1[O-])Cc1cc(CCC(=O)O)ccc1[O-].[68Ga+3].[OH3+] [[^68Ga]Ga-PSMA-11]
Accumulation in the kidney (literature): 139 % ID/g
